Results on seven compounds are retold here after paper PMC11635053, “Development of a homotrimeric PSMA radioligand based on the NOTI chelating platform” (EJNMMI Radiopharmacy and Chemistry, 2024).

One data set concerns the target T1, PSMA (Homo sapiens, UniProt Q04609).
T1 construct: host or cells: LNCaP
Nature of the data set: Competitive binding assay in LNCaP cells with [177Lu]Lu-PSMA-617 as radioligand. The note with it: for IC50: LNCaP cells, radioligand [177Lu]Lu-PSMA-617, 2 h at r.t., read-out: IC50 (half maximum competitive inhibitory concentration). How it is done: In order to establish a structure–activity relationship, the binding affinity of the metal-free and ^natGa-complexes of the conjugates 7, 8, and 9 were determined in the PSMA-positive human prostate cancer cell line LNCaP by a competitive binding assay as previously reported using [^177Lu]Lu-PSMA-617 as the radioligand (Stemler et al. [2021]). The conjugate Glu-CO-Lys-Ahx-HBED-CC (PSMA-11) was included as the control.
The competitive binding assay was carried out using a MultiScreen®HTS Vacuum Manifold system (Merck, Germany) with 96-well filter plates. Serial dilutions of the metal-free conjugates and corresponding ^natGa complexes were prepared to obtain 7 final concentrations ranging from 0 to 1000 nM for each compound. PSMA-11 was also tested as control. Experiments were performed twice in triplicate for each compound. Freshly prepared ^177Lu-labeled PSMA-617 was used as the radioligand. A volume of 1 μL of [^177Lu]Lu-PSMA-617 stock solution (2.83 μM) was added into each tube of the dilution series (radioligand concentration 3.14 nM). For the experiment, 10^5 LNCaP cells were seeded into each well. The final volume of each well was 150 μL (100 μL cells in medium + 50 μL inhibitor in PBS). The experiment was incubated for 2 h at r.t. in a plate shaker. Then, the supernatants were removed by vacuum. Wells were furthermore washed out with ice-cold PBS (3 × 200 μL, pH 7.4). The filters were punched into tubes for the subsequent quantification of the activity in a Gamma-counter. A nonlinear regression algorithm was applied by the software GraphPad Prism to determine the specific inhibitory concentrations of 50% for the tested radiotracers.

The subject of data set [1] is PSMA-positive LNCaP cells. Nature of the data set: Cell uptake / internalization of 68Ga-labeled conjugates in LNCaP cells. It counts as cell-based, human. The note with it: 1 h incubation; for Cell uptake: in words. How it is done:
Next, the cellular uptake of the ^68Ga-labeled conjugates 7, 8, and 9 as well as [^68Ga]Ga-PSMA-11 was determined in PSMA-positive LNCaP cells.
LNCaP cells were seeded (10^6 cells well^−1) in poly-L-lysine coated 6-well plates 24 h before the experiment. Experiments were performed twice in triplicate for each compound. The radiolabeling solutions of [^68Ga]Ga-7, [^68Ga]Ga-8, [^68Ga]Ga-9, and [^68Ga]Ga-PSMA-11 were first diluted with PBS (pH 7.4) to a concentration of […]. 100 µL of this dilution were added to 3900 µL PBS (pH 7.4) to obtain final stock solutions of each radiolabeled compound (0.025 nmol mL^−1).
On the day of the experiment, the medium was replaced by fresh preheated medium (1.4 mL w/o blocking, 1.3 mL with blocking) and the cells incubated for 1 h at 37 °C. Next, the blocking solution was added (100 μL, 2500 pmol) to the corresponding wells. Finally, the corresponding radiolabeled conjugate (100 μL, 2.5 pmol) was added to a final assay volume of 1.5 mL well^−1. After 1 h incubation time, the supernatants were removed and the cells were washed carefully with ice-cold PBS buffer (2 × 1 mL, pH 7.4) followed by a subsequent glycine–HCl washing step (50 mM, pH 2.8, 2 × 1 mL well^−1). Cells were incubated with the glycine–HCl solution for 4 min at r.t. Next, corresponding fractions were transferred into counting tubes. Subsequently, the cells were lysed by adding NaOH (2 × 1 mL well^−1, 0.1 M) and the lysed fractions were also transferred into counting tubes. As standards, 100 µL of each radiolabeled conjugate stock solution (0.025 nmol mL^−1, 2.5 pmol) were pipetted into counting tubes containing 2 mL PBS buffer. The activity of the standards, the surface bound fractions and the internalized fractions were measured in a Gamma counter. Means were calculated and subtracted by the background. The percentages of unspecific and specific cell-surface bound and internalized activity were calculated from the standards.

The format of data set [2] is in vitro ADME. To be noted: 2 h. How it is done:
100 μL of the radiolabeling solution of each ^68Ga-labeled tracer were added to preheated (37 °C) 1000 μL human serum (male, AB, Sigma Aldrich, USA) in triplicates and incubated at 37 °C. At 1 and 2 h, 100 µL aliquots were taken, mixed with 100 µL ice-cold acetonitrile, and centrifuged at 4 G for 5 min at 4 °C. The corresponding filtrates were kept on ice until HPLC analysis. The supernatants were then analyzed by radio-RP-HPLC and fractions of intact compounds were calculated from the HPLC chromatograms. (gradient 4,Gamma-ray detector: 100–900 keV, injection volume: 20 μl). tR ([^68Ga]Ga-7) = 12.1 min, tR ([^68Ga]Ga-8) = 14.4 min, tR ([^68Ga]Ga-9) = 25.2 min.

The subject of another data set is human serum proteins. Nature of the data set: in vitro. To be noted: male; for Protein binding: 1 h; for fraction unbound at 1 h: Protein binding. The class given is in vitro ADME. How it is done:
To determine the protein bound fraction of each trimeric radiotracer, 100 μL of the radiolabeling solution of the corresponding ^68Ga-labeled conjugate were added to preheated (37 °C) 1000 μL human serum (male, AB, Sigma Aldrich, USA) in triplicates. Samples were incubated for 1 h at 37 °C. After cooling to r.t., the samples were centrifuged utilizing molecular cutoff (30 kDa) centrifuge tubes at 4 G for 5 min at 4 °C. The filters were additionally rinsed with PBS buffer (2 × 100 μL). The background subtracted activity in the filters and the filtrates were determined in a Gamma counter and the percentage of protein bound fractions were calculated.

In data set [3] the test system is LNCaP xenograft bearing mice. The note with it: 1 h p.i., cited from earlier work.
The subject of data set [4] is patient with metastatic prostate cancer. The data set can be described thus: Clinical PET/CT imaging. The note with it: patient, 1 h p.i. How it is done:
PET/CT was performed approximately 1, 2, and 3 h after intravenous injection of 107 MBq of [^68Ga]Ga-9 and 1 h after injection of 113 MBq [^68Ga]Ga-PSMA-11 in a patient with metastatic prostate cancer. Whole body imaging extending from vertex to mid-femur was performed in 3D-ToF mode on a Biograph mCT 40 scanner (Siemens Medical Solutions, Knoxville, TN, USA) with an extended field of view of 21.4 cm. PET acquisition time was 3 min bed position^−1. Low-dose CT acquisition was performed for attenuation correction and anatomical localization using an X-ray tube voltage of 120 kV and a modulation of the tube current (maximal tube current: 30 mA; CARE Dose 4D software Siemens Healthineers, Erlangen, Germany) followed by reconstruction with a soft tissue reconstruction kernel (Bf37) to a slice thickness of 5 mm (increment 2–4 mm). PET emission data were additionally corrected for decay, randoms and scatter and reconstructed applying an iterative 3D ordered subset expectation maximization algorithm (3 iterations; 21 subsets) withGaussian filtering to transaxial resolution of 5 mm at full width at half maximum. The matrix size was 200 × 200 mm and the reconstructed pixel size was 5.0 mm.

Where [5] appears, read: 2.5 pmol per 10^6 cells, 68Ga-labeled.
Setting [6] is: lesions listed as 1 × prostate, 2 × lymph node metastasis.

What is called fraction unbound is the share of the substance not bound to proteins or other matrix. Lower therefore signals little free substance.

Read-outs that look alike come from different tables or passages of the source.

T1 sequence (Q04609 whole entry): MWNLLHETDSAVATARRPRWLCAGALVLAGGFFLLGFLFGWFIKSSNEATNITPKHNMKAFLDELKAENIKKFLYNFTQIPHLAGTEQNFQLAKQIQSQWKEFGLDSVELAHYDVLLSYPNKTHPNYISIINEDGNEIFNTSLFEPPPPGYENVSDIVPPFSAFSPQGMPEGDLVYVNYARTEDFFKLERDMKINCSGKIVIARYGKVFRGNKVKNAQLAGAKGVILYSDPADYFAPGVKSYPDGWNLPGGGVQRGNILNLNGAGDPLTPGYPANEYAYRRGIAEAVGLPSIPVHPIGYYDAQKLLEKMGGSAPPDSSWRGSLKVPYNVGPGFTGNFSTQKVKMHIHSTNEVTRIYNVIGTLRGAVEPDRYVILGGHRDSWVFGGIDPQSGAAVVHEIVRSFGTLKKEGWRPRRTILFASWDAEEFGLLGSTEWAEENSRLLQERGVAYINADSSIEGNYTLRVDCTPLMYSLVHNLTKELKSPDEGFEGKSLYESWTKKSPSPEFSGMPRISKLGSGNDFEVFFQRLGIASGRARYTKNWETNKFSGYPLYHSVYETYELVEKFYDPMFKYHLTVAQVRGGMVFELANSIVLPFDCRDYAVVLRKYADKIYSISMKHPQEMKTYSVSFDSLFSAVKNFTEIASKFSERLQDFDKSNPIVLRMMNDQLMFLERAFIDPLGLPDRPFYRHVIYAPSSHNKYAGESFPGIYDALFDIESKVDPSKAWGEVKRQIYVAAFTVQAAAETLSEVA

Turning to `O=C(O)CC[C@H](NC(=O)N[C@@H](CCCCNC(=O)CCCCn1ccnc1CN1CCN(Cc2nccn2CCCCC(=O)NCCCC[C@H](NC(=O)N[C@@H](CCC(=O)O)C(=O)O)C(=O)O)CCN(Cc2nccn2CCCCC(=O)NCCCC[C@H](NC(=O)N[C@@H](CCC(=O)O)C(=O)O)C(=O)O)CC1)C(=O)O)C(=O)O` [Compound 7, (2S,2'S,2''S)−2,2',2''-(((((1S,1'S,1''S)-((5,5',5''-(((1,4,7-triazonane-1,4,7-triyl)tris(methylene))tris(1H-imidazole-2,1-diyl))tris(pentanoyl))tris(azanediyl))tris(1-carboxypentane-5,1-diyl))tris(azanediyl))tris(carbonyl))tris(azanediyl))triglutaric acid], the IC50 at PSMA worked out at 264 nM.

For `O=C(O)CC[C@H](NC(=O)N[C@@H](CCCCNC(=O)[C@H](Cc1ccc2ccccc2c1)NC(=O)[C@H]1CC[C@H](CNC(=O)CCCCn2ccnc2CN2CCN(Cc3nccn3CCCCC(=O)NC[C@H]3CC[C@H](C(=O)N[C@@H](Cc4ccc5ccccc5c4)C(=O)NCCCC[C@H](NC(=O)N[C@@H](CCC(=O)O)C(=O)O)C(=O)O)CC3)CCN(Cc3nccn3CCCCC(=O)NC[C@H]3CC[C@H](C(=O)N[C@@H](Cc4ccc5ccccc5c4)C(=O)NCCCC[C@H](NC(=O)N[C@@H](CCC(=O)O)C(=O)O)C(=O)O)CC3)CC2)CC1)C(=O)O)C(=O)O` [Compound 9], the IC50 on PSMA stood at 5.9 nM. Also, the Cell internalization in data set [1] (setting [5]) was 17.8 ± 2.5%.

Take `O=C(O)CC[C@H](NC(=O)N[C@@H](CCCCNC(=O)CCCCCNC(=O)CCCCn1ccnc1CN1CCN(Cc2nccn2CCCCC(=O)NCCCCCC(=O)NCCCC[C@H](NC(=O)N[C@@H](CCC(=O)O)C(=O)O)C(=O)O)CCN(Cc2nccn2CCCCC(=O)NCCCCCC(=O)NCCCC[C@H](NC(=O)N[C@@H](CCC(=O)O)C(=O)O)C(=O)O)CC1)C(=O)O)C(=O)O` [Compound 8, (3S,3'S,3''S,7S,7'S,7''S)−24,24',24''-(((1,4,7-triazonane-1,4,7-triyl)tris(methylene))tris(1H-imidazole-2,1-diyl))tris(5,13,20-trioxo-4,6,12,19-tetraazatetracosane-1,3,7-tricarboxylic acid)]: the IC50 on PSMA was found to be 65 nM. At PSMA (LNCaP competitive binding, metal-free conjugate), the “Factor by which affinity is lower compared to PSMA-11” value is reported as ~ 3.

On to `O=C(O)CC[C@H](NC(=O)N[C@@H](CCCCNC(=O)CCCCCNC(=O)CCCCn1ccnc1CN1CCN(Cc2nccn2CCCCC(=O)NCCCCCC(=O)NCCCC[C@H](NC(=O)N[C@@H](CCC(=O)O)C(=O)O)C(=O)O)CCN(Cc2nccn2CCCCC(=O)NCCCCCC(=O)NCCCC[C@H](NC(=O)N[C@@H](CCC(=O)O)C(=O)O)C(=O)O)CC1)C(=O)O)C(=O)O` [^nat/68Ga-8, metal not drawn], for which the “Metabolic stability in human serum” value in data set [2] was “no significant degradation”. In the data set on human serum proteins, this compound had a Protein binding of 68.2 ± 1.5% and a fraction unbound at 1 h of about 0.35. On PSMA, the IC50 is 90 nM. For the same compound, the Cell internalization in data set [1] (setting [5]) came to 0.08 ± 0.02%. Also, the Cell uptake result in data set [1] is given as “negligible”.

With `O=C([O-])CN(CCN(CC(=O)[O-])Cc1cc(CCC(=O)NCCCCCC(=O)NCCCC[C@H](NC(=O)N[C@@H](CCC(=O)O)C(=O)O)C(=O)O)ccc1[O-])Cc1cc(CCC(=O)O)ccc1[O-].[68Ga+3].[OH3+]` [[^68Ga]Ga-PSMA-11, reference compound], in data set [3] (ref Benešová et al. ([2015])), the Kidney uptake was 187.4 ± 25.3 % IA g^−1, the Tumor uptake is listed as 10.58 ± 4.5 % IA g^−1 and the Tumor-to-kidney ratio is on record as 0.06. In data set [3] (ref Eder et al. ([2012])), the Kidney uptake is given as 139.4 ± 21.4 % IA g^−1, the Liver uptake was 0.87 ± 0.05 % IA g^−1, the Tumor uptake is on record as 7.70 ± 1.45 % IA g^−1 and the Tumor-to-kidney ratio is given as 0.06. Besides, the Tumor-to-liver ratio in data set [3] (ref Eder et al. ([2012])) is recorded as 8.85. In data set [4], the “SUVpeak in the parotid gland” value stood at 37.0, the “SUVpeak in the submandibular gland” value is 31.6, the SUVpeak kidneys is listed as 126.3 and the SUVpeak liver was found to be 8.5. Further, in data set [4] (setting [6]), the “SUVpeak, first target lesion” value was determined as 35.3; the “SUVpeak, second target lesion” value is 16.3; the “SUVpeak, third target lesion” value was determined as 20.6. In data set [1] (setting [5]), this compound registered a Cell internalization of 5.2 ± 0.2% and a Cell-surface bound fraction of 4.5 ± 0.2%.

On to `O=C(O)CCc1ccc(O)c(CN(CCN(CC(=O)O)Cc2cc(CCC(=O)NCCCCCC(=O)NCCCC[C@H](NC(=O)N[C@@H](CCC(=O)O)C(=O)O)C(=O)O)ccc2O)CC(=O)O)c1` [PSMA-11, Glu-CO-Lys-Ahx-HBED-CC, reference compound], for which the IC50 on PSMA came out at 18.5 nM.

With `O=C(O)CC[C@H](NC(=O)N[C@@H](CCCCNC(=O)CCCCn1ccnc1CN1CCN(Cc2nccn2CCCCC(=O)NCCCC[C@H](NC(=O)N[C@@H](CCC(=O)O)C(=O)O)C(=O)O)CCN(Cc2nccn2CCCCC(=O)NCCCC[C@H](NC(=O)N[C@@H](CCC(=O)O)C(=O)O)C(=O)O)CC1)C(=O)O)C(=O)O` [^nat/68Ga-7, metal not drawn], in data set [2], the “Metabolic stability in human serum” value is recorded as “no significant degradation”. In the data set on human serum proteins, this compound gave a Protein binding of 63.8 ± 4.0% and a fraction unbound at 1 h of about 0.36. Also, the IC50 at PSMA stood at 450 nM. The Cell uptake entry in data set [1] was “negligible”.
